Here are results for 12 compounds from patent publication US20240294543A1, “CYCLOHEPTA-THIENO-DIAZEPINE DERIVATIVES AS GABA A GAMMA1 PAM” (Hoffmann-La Roche Inc., priority 2021, published 2024).

Molecules are shown by their SMILES. Read-outs that look alike come from different tables or passages of the source.

Experiment [1] deals with human GABAA α1β2γ1 receptor (Homo sapiens (Human), UniProt P14867+Q8N1C3). Description: Radioligand binding assay, competition for [3H]RO7239181, γ1-containing GABAA subtypes. The note with it: Ki h-GABAA α1β2γ1, membranes of HEK293F cells, [3H]RO7239181 20-30 nM, Table 1.
The target in experiment [2] is human GABAA α2β2γ1 receptor (Homo sapiens (Human), UniProt P47869+Q8N1C3). The experiment is described as above. Particulars: Ki h-GABAA α2β2γ1, membranes of HEK293F cells, [3H]RO7239181 20-30 nM.
Experiment [3] has as its target human GABAA α1β3γ2 receptor (Homo sapiens (Human), UniProt P14867+P18507). Put plainly: Radioligand binding assay, competition for [3H]Flumazenil, γ2-containing GABAA subtypes. The note with it: for γ2/γ1 Selectivity Ratio: Ki α1β3γ2 (nM)/Ki α2β2γ1 (nM); for LogSel: Log[Ki α1β3γ2 (nM)/Ki α2β2γ1 (nM)]. The method in brief:
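Competition against [3H]Flumazenil binding in HEK293F cells transiently expressing human α1β3γ2 receptors, pellets resuspended in mannitol buffer pH 7,2-7,4. Incubated to equilibrium 1 hour at 4° C, filtered and washed with ice-cold 50 mM Tris pH 7.5, bound radioactivity by liquid scintillation counting. Ki values are means of two determinations.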

Where [4] appears, read: HEK293F cells, [3H]Flumazenil 1 nM, Table 1, read-out: Ki h-GABAA α1β3γ2.

For `CCOC1CN(C(=O)c2nc3n(n2)-c2sc4c(c2C(c2c(F)cccc2F)=N[C@H]3C)COCCO4)C1` [Example 31, [(7S)-9-(2,6-Difluorophenyl)-7-methyl-13,16-dioxa-18-thia-2,3,5,8-tetrazatetracyclo[8.8.0.02,6.011,17]octadeca-1(10),3,5,8,11(17)-pentaen-4-yl]-(3-ethoxyazetidin-1-yl)methanone], the Ki in experiment [1] stood at 43.6 nM; in experiment [2] (Table 1), 5.5 nM; in experiment [2] (Table 2) it was 5.6 nM; in experiment [3] (setting [4]), 4540 nM. Also, in experiment [3] (Table 1), the “γ2/γ1 Selectivity Ratio” value was found to be 818.0. In experiment [3] (Table 1), this compound had a LogSel of 2.91.

On to `Cc1nnc2n1-c1sc3c(c1C(c1c(F)cccc1F)=N[C@H]2C)CCC[C@H](F)C3` (single isomer, unassigned) [Example 17], for which the Ki in experiment [1] was determined as 30.2 nM; in experiment [2] (Table 1), 4.31 nM; in experiment [2] (Table 2), 4.3 nM; in experiment [3], 584 nM. Moreover, in experiment [3] (Table 1), the “γ2/γ1 Selectivity Ratio” value worked out at 135.6. This compound yielded a LogSel in experiment [3] (Table 1) of 2.13.

On to `Cc1nnc2n1-c1sc3c(c1C(c1c(F)cccc1Cl)=N[C@H]2C)COCCC3` [Example 61, (7S)-9-(2-chloro-6-fluoro-phenyl)-3,7-dimethyl-13-oxa-18-thia-2,4,5,8-tetrazatetracyclo[8.8.0.02,6.011,17]octadeca-1(10),3,5,8,11(17)-pentaene], for which the inhibitory constant (Ki) in experiment [1] is 49.1 nM; in experiment [2] (Table 1), 20.6 nM; in experiment [2] (Table 2), 20.6 nM; in experiment [3], 2520 nM. In experiment [3] (Table 1), the “γ2/γ1 Selectivity Ratio” value was 122.4. The compound further came in with a LogSel in experiment [3] (Table 1) of 2.09.

With `C[C@@H]1N=C(c2c(F)cccc2F)c2c(sc3c2COCCO3)-n2nc(C(=O)NC[C@@](C)(O)C(F)(F)F)nc21` [Example 46, (7S)-9-(2,6-difluorophenyl)-7-methyl-N-[(2R)-3,3,3-trifluoro-2-hydroxy-2-methyl-propyl]-13,16-dioxa-18-thia-2,3,5,8-tetrazatetracyclo[8.8.0.02,6.011,17]octadeca-1(10),3,5,8,11(17)-pentaene-4-carboxamide], the inhibition constant (Ki) in experiment [1] was 60 nM; in experiment [2] (Table 1), 15.2 nM; in experiment [2] (Table 2), 15.2 nM; in experiment [3] (setting [4]), 4320 nM. The “γ2/γ1 Selectivity Ratio” value in experiment [3] (Table 1) is reported as 284.3. In experiment [3] (Table 1), this compound came in with a LogSel of 2.45.

With `Cc1nnc2n1-c1sc3c(c1C(c1c(F)cccc1F)=N[C@H]2C)CCCCO3` [Example 19, (7S)-9-(2,6-difluorophenyl)-3,7-dimethyl-16-oxa-18-thia-2,4,5,8-tetrazatetracyclo[8.8.0.02,6.011,17]octadeca-1(10),3,5,8,11(17)-pentaene], the Ki in experiment [1] is 80.5 nM; in experiment [2] (Table 1), 16.8 nM; in experiment [2] (Table 2), 16.9 nM; in experiment [3], 615 nM. The “γ2/γ1 Selectivity Ratio” value in experiment [3] (Table 1) was found to be 36.5. In addition, in experiment [3] (Table 1), the LogSel was found to be 1.56.

For `Cc1nnc2n1-c1sc3c(c1C(c1c(F)cccc1F)=N[C@H]2C)CCCC[C@@H]3F` (single isomer, unassigned) [Example 12], the Ki in experiment [1] is 45.7 nM; in experiment [2] (Table 1), 33.7 nM; in experiment [2] (Table 2), 33.7 nM; in experiment [3] it was 1010 nM. Moreover, the “γ2/γ1 Selectivity Ratio” value in experiment [3] (Table 1) is given as 29.9. Besides, the LogSel in experiment [3] (Table 1) was 1.48.

As to `C[C@@H]1N=C(c2c(F)cccc2F)c2c(sc3c2COCCO3)-n2nc(C(=O)NC[C@](C)(O)C(F)(F)F)nc21` [Example 47, (7S)-9-(2,6-difluorophenyl)-7-methyl-N-[(2S)-3,3,3-trifluoro-2-hydroxy-2-methyl-propyl]-13,16-dioxa-18-thia-2,3,5,8-tetrazatetracyclo[8.8.0.02,6.011,17]octadeca-1(10),3,5,8,11(17)-pentaene-4-carboxamide], the Ki in experiment [1] was found to be 93.4 nM; in experiment [2] (Table 1), 20.3 nM; in experiment [2] (Table 2), 20.3 nM; in experiment [3] (setting [4]), 3540 nM. In addition, in experiment [3] (Table 1), the “γ2/γ1 Selectivity Ratio” value worked out at 174.6. Further, in experiment [3] (Table 1), the LogSel came out at 2.24.

For `C[C@@H]1N=C(c2c(F)cccc2F)c2c(sc3c2COCCC3)-n2nc(C(=O)NC[C@@](C)(O)C(F)(F)F)nc21` [Example 70, (7S)-9-(2,6-difluorophenyl)-7-methyl-N-[(2R)-3,3,3-trifluoro-2-hydroxy-2-methyl-propyl]-13-oxa-18-thia-2,3,5,8-tetrazatetracyclo[8.8.0.02,6.011,17]octadeca-1(10),3,5,8,11(17)-pentaene-4-carboxamide], the Ki in experiment [2] (Table 1) was 49.9 nM; in experiment [2] (Table 2), 49.9 nM; in experiment [3] (setting [4]), 3550 nM. In experiment [3] (Table 1), the “γ2/γ1 Selectivity Ratio” value came out at 71.1. In addition, the LogSel in experiment [3] (Table 1) is 1.85.

Consider `C[C@@H]1N=C(c2c(F)cccc2F)c2c(sc3c2COCCO3)-n2c(C3CC3)nnc21` [Example 43, (7S)-3-cyclopropyl-9-(2,6-difluorophenyl)-7-methyl-13,16-dioxa-18-thia-2,4,5,8-tetrazatetracyclo[8.8.0.02,6.011,17]octadeca-1(10),3,5,8,11(17)-pentaene], for which the Ki in experiment [2] (Table 1) came to 23.6 nM; in experiment [2] (Table 2), 23.6 nM; in experiment [3] it was 5360 nM. Moreover, the “γ2/γ1 Selectivity Ratio” value in experiment [3] (Table 1) is on record as 227.2. Also, the LogSel in experiment [3] (Table 1) was 2.36.

With `Cc1nnc2n1-c1sc3c(c1C(c1c(F)cccc1F)=N[C@H]2C)CCCC[C@H]3F` (single isomer, unassigned) [Example 11], the inhibitory constant (Ki) stood at 17.4 nM in experiment [2] (Table 1), 17.5 nM in experiment [2] (Table 2) and 825 nM in experiment [3]. Further, the “γ2/γ1 Selectivity Ratio” value in experiment [3] (Table 1) worked out at 47.3. For the same compound, the LogSel in experiment [3] (Table 1) stood at 1.67.

In the case of `Cc1nnc2n1-c1sc3c(c1C(c1c(F)cccc1F)=N[C@H]2C)CCCC(O)C3` (mixture of isomers) [Example 13, (7S,15RS)-9-(2,6-difluorophenyl)-3,7-dimethyl-18-thia-2,4,5,8-tetrazatetracyclo[8.8.0.02,6.011,17]octadeca-1(10),3,5,8,11(17)-pentaen-15-ol], the values for the inhibition constant (Ki) in experiment [2] (Table 1), in experiment [2] (Table 2) and in experiment [3] were 15.1 nM, 15.1 nM and 1190 nM, respectively. The “γ2/γ1 Selectivity Ratio” value in experiment [3] (Table 1) turned out to be 78.9. The same compound came in with a LogSel in experiment [3] (Table 1) of 1.90.

Turning to `C[C@@H]1N=C(c2c(F)cccc2F)c2c(sc3c2COC[C@H](C)O3)-n2nc(C(=O)NCCO)nc21` [Example 53, (7S,15S)-9-(2,6-difluorophenyl)-N-(2-hydroxyethyl)-7,15-dimethyl-13,16-dioxa-18-thia-2,3,5,8-tetrazatetracyclo[8.8.0.02,6.011,17]octadeca-1(10),3,5,8,11(17)-pentaene-4-carboxamide], the values for the Ki in experiment [2] (Table 1), in experiment [2] (Table 2) and in experiment [3] (setting [4]) were 95.3 nM, 95.3 nM and 11400 nM, respectively. For the same compound, in experiment [3] (Table 1), the “γ2/γ1 Selectivity Ratio” value was 119.7. Further, in experiment [3] (Table 1), the LogSel was 2.08.

One may read the Ki as the dissociation constant of the complex between target and ligand, obtained from inhibition or displacement.
